# From patent US11229652B2, “Treatments for autoimmune disease” (THE PROVOST, FELLOWS, FOUNDATION SCHOLARS, AND THE OTHER …, priority 2014, dated 2022)
# What was measured:
# [1] = target: queuine-insertase enzyme complex (Homo sapiens, UniProt Q9BXR0); assay: [14C] guanine displacement assay (queuine-insertase substrate); format: biochemical
# Source text: The skilled reader will be aware of methods for determining whether or not a particular molecule is a substrate for the queuine-insertase enzyme complex. For example, molecules capable of acting as a queuine-insertase enzyme complex substrate may be identified by use of a displacement assay as described below (FIG. 1):
# Production of [8-^14C] Guanine Labeled tRNA (tRNA*)
# Before adding the 8-[^14C] guanine solution to the reaction the solution was neutralised with an equal volume (vol/vol) 0.01 M NaOH, as the [8-^14C] Guanine is supplied in 0.01 M HCl aqueous solution. A stock solution of yeast tRNA from Saccharomyces cerevisiae was made to a concentration of 2 absorbance units (260 nm) in ultrapure nuclease-free water. The recombinant Escherichia coli (E. coli) tRNA guanine transglycosylase enzyme (E. coli TGT) containing an N-terminal polyhistidine tag was produced in BL21 BL21(DE3) tgt:Kmr cells as described previously (Boland et al., 2009).
# The reaction was incubated for 2 h at 37° C. After incubation the reaction was made up to 400 μL with buffer. […] The tRNA* pellet was resuspended in 20 μL nuclease-free water and the concentration measured spectrophotometrically at A260. […]
# After incubation the reaction was loaded onto the column and spun at 0.1×g for 10 seconds. […] The vials containing the flow-through and washes are counted for displaced [^14C] guanine. […]
# HPRT [2] = target: T1, HPRT (Homo sapiens, UniProt P00492); assay: HPRT assay (substrate or inhibitor of HPRT); format: biochemical; settings: in vitro, FIG. 2
# T1 sequence (P00492 1-218): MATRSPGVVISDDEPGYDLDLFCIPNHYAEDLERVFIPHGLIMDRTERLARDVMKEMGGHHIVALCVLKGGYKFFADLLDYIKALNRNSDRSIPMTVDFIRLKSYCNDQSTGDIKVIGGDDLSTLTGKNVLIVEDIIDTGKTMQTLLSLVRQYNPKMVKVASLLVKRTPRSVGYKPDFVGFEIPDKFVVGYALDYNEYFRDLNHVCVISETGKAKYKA
# Source text: Similarly, the skilled reader will be aware of methods suitable for determining whether a compound is a substrate or inhibitor of HPRT. For example, molecules that are […] for HPRT may be identified by use of the following assay:
# Assay to Evaluate Compounds as Substrates or Inhibitors of the Hypoxanthine-Guanine Phosphoribosyltransferase Enzyme or ‘HPRT Assay’ (FIG. 2).
# Preparation and Equilibration of Column:
# Dowex-1×8, mesh size 200-400, was weighed out in a sterile 50 ml tube and washed 3 times with aqueous 1 M HCl to charge the resin. The resin was then washed 5-6 times with (20 mls each) Milli-Q H2O until a neutral pH was reached. Columns (Bio-rad 10 mL plastic columns) were set up with 1 mL of wet Dowex (wet mix applied, allowed to settle and more applied until a packed volume of 1 mL was reached). The packed resin was rinsed with 10 volumes (v/v) milli-Q H2O to ensure that a neutral pH and consistent packing was achieved.
# HPRT Reactions are set up in 100 μL volume in triplicate with the following components: […]
# After inactivation, the reactions were cooled to room temperature (using ice), before being applied to a 1 mL packed resin column of Dowex-1×8, mesh size 200-400. […] 15 mL of scintillation cocktail (Ecoscint A) was added and vials counted to evaluate the level of conversion of [8-^14C]-guanine to GMP. […]
# wild-type T cells = assay: Proliferation of wild-type cells; format: cell-based; settings: 100 μM, FIG. 4a
# Source text: (§1) FIGS. 4a, 4b, 4c, and 4d depict the molecules effects on total percentage of proliferation in wild-type spleenocytes, HPRT knockout spleenocytes, HPRT:TGT double knockout spleenocytes, and wild-type versus single TGT knockout spleenocytes respectively;
# TGT KO cells = assay: Proliferation of TGT knockout cells; format: cell-based; settings: 100 μM, FIG. 4d
# Source text: as §1
# [3] = test system: HPRT:TGT double knockout spleenocytes; assay: Proliferation of TGT:HPRT double knockout cells; format: cell-based; settings: 100 μM, FIG. 4c
# Source text: as §1
# [4] = test system: chronic monophasic EAE disease; assay: Chronic monophasic EAE disease in mice; format: in vivo, mice (C57BL/6)
# Method: To assess the potential of these compounds in vivo, a chronic monophasic EAE disease in mice was induced before treatment with the new chemical entity (NCE). EAE Disease was induced in 8-10 week old female mice (C57BL/6) by sub-cutaneous (s.c.) injection of 200 II emulsion containing 150 μg […] peptide (Genscript) in Complete Freund's Adjuvant (CFA; containing 5 mg/ml heat-inactivated Mycobacterium tuberculosis). On the same day, mice were administered 500 ng Pertussis Toxin (Kaketsuken, Japan) intraperitoneally (i.p.) and again two days later. Disease severity was recorded every 24 hours: 0-Normal; 1-flaccid tail; 2-imparied/wobbly gait; 3-complete hind limb weakness; 4-hind limb and forelimb paralysis; 5-moribund state/dead. Protocol is based on the Nature Protocols for Active induction of experimental allergic encephalomyelitis, which includes the scoring methodology: • Stromnes I M, Goverman J M (2006) Active induction of experimental allergic encephalomyelitis. Nat Protoc. 1(4):1810-9.
# The EAE score relates to an assessment of disease progression with respect to issues like tail paralysis and limb paralysis, a higher score is a worse condition. A score of 1 indicates decreased tail tone, a score of 2 indicates hind leg weakness (paraparesis), a score of 3 indicates hind limb paralysis and/or incontinence. Note that the untreated animals have a continuous and progressive worsening of disease.
# This contrasts with the sustained drop in body weight of non-treated EAE diseased animals to a level 86.4% that of controls at 21 dpi (17.8 grams versus 20.6 grams). Motor coordination and hind-limb strength were also evaluated by the ability of mice to cross a horizontal bar (FIG. 7). Non-diseased animals crossed the bar with an average time of 4.3±0.57 seconds.
# HPRT [5] = target: T1, HPRT; settings: higher for HPRT; cited from earlier work
# [6] = test system: Experimental Autoimmune Encephalomyelitis; EAE; settings: earlier work; cited from earlier work
# DNA = settings: incorporated into DNA after HPRT activity; cited from earlier work
# Chain of queuine-insertase enzyme complex (Q9BXR0 whole entry): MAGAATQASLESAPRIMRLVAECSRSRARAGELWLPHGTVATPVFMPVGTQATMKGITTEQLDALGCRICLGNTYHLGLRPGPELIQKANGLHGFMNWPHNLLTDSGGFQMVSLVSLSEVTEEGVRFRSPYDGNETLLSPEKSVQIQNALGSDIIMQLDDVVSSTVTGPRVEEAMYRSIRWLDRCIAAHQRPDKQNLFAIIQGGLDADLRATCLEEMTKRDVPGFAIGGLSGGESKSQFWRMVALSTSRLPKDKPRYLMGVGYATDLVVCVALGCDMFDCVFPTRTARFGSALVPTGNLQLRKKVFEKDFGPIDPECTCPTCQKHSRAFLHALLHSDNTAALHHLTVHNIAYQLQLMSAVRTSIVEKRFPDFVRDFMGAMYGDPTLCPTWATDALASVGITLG
# Chain of queuine-insertase enzyme complex (Q9H974 whole entry partner): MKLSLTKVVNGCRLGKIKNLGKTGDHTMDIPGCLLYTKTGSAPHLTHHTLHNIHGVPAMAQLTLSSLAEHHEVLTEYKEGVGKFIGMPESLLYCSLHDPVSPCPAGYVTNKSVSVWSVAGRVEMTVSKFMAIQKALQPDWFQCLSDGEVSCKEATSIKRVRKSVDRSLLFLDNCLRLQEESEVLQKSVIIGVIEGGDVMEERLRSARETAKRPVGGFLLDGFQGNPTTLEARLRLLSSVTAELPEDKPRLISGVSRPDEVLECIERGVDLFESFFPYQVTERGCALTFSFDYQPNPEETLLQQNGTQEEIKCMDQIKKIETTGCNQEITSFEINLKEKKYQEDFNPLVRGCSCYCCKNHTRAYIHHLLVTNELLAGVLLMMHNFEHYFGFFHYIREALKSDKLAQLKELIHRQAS
structure (smiles),measurement,setting,value
"Cl.Nc1nc2[nH]cc(CNCCCc3ccccc3)c2c(=O)[nH]1 [Compound I, N-((2-amino-4-oxo-4,7-dihydro-3H-pyrrolo[2,3-d]pyrimidin-5-yl)methyl)-3-phenylpropan-1-aminium chloride]",substrate for TGT (queuine-insertase enzyme complex),"[1]; in vitro, recombinant TGT enzyme, FIG. 1",substrate for TGT
same,substrate or inhibitor of HPRT,HPRT [2],not to be a substrate or inhibitor
same,proliferation,wild-type T cells,less than 50%
same,effect on proliferation,TGT KO cells,lack of effect
same,effect on proliferation,[3],essentially unaffected
same,EAE score outcome after 4 daily treatments,"[4]; EAE mice, 30 mg/kg, i.p., FIG. 5",disease free
same,time to reversal of symptoms,"[4]; EAE mice, 30 mg/kg, i.p., highest dosage, FIG. 5",≤ 24 h
same,EAE disease progression,"[4]; EAE mice, lower doses, FIG. 5",disease progression was halted and reversed
same,motor coordination and hind-limb strength (horizontal bar crossing),"[4]; EAE mice, within 4 treatments, FIG. 7",fully restored the performance of EAE diseased mice to control levels
same,weight level relative to controls,"[4]; treated EAE mice, 21 days post inoculation, FIG. 6",96.6%
same,body weight,"[4]; treated EAE mice, 21 days post inoculation, controls 20.6 grams, FIG. 6",19.9 grams
"Nc1nc2nc[nH]c2c(=S)[nH]1 [Example 6TG, 6-thioguanine]",substrate potency for HPRT relative to queuine-insertase enzyme complex,HPRT [5],approx. 10 fold
same,effect on the murine model of chronic MS (EAE),[6],dramatic effect
same,genotoxicity,DNA,genotoxic
"Nc1nc2[nH]cc(CN[C@H]3C=C[C@H](O)[C@@H]3O)c2c(=O)[nH]1 [queuine, 2-amino-5-((((1S,4S,5R)-4,5-dihydroxycyclopent-2-en-1-yl)amino)methyl)-3,7-dihydro-4H-pyrrolo[2,3-d]pyrimidin-4-one, reference compound]",maximum displacement of [14C] guanine,"[1]; 200 μM compound, background ≤10 pmol, ≥50 pmol counts as positive substrate",240 pmol
